Measured values: US20240174727A1, “LONG-ACTING NATRIURETIC PEPTIDES AND USES THEREOF” (Eli Lilly and Company, priority 2022, published 2024)
Like-named read-outs stand apart in the source and are kept apart here. Numbered stars: 1 amine (or outer) side, 2 acyl side, 3 side chain; on linkers, the order of the positions; unused ones are H or OH. Bridge positions count the residues as written; N and C are the ends. Square brackets hold non-standard residues; d marks the D form. * marks the point of attachment. C20 diacid = O=C(O)CCCCCCCCCCCCCCCCCCC(=O)*; γGlu = O=C(O)[C@H](CCC(=O)[*:2])N[*:1]; 4Pal = N[C@@H](Cc1ccncc1)C(=O)O; Dap = NC[C@H](N)C(=O)O; AEEA = NCCOCCOCC(=O)O; CH2 = C([*:1])[*:2]; βAla = NCCC(=O)O

Assays:
human NPRA = target: T1, human NPRA (Homo sapiens, UniProt P16066); experiment: Human NPRA cGMP activity assay (HTRF) in HEK293 cells overexpressing NPRA; assay type: cell-based; conditions: assay buffer with 0.1% casein
T1 construct: Full-Length cDNA Cloning and Generation of Cell Lines Overexpressing Natriuretic Peptide Receptors (NPRs); expressed in transfected cells; host or cells: Jump-in T-Rex HEK293 cells, pJTI R4 CMV-TO MCS pA vector, tetracycline induction
T1 sequence (P16066 33-1061): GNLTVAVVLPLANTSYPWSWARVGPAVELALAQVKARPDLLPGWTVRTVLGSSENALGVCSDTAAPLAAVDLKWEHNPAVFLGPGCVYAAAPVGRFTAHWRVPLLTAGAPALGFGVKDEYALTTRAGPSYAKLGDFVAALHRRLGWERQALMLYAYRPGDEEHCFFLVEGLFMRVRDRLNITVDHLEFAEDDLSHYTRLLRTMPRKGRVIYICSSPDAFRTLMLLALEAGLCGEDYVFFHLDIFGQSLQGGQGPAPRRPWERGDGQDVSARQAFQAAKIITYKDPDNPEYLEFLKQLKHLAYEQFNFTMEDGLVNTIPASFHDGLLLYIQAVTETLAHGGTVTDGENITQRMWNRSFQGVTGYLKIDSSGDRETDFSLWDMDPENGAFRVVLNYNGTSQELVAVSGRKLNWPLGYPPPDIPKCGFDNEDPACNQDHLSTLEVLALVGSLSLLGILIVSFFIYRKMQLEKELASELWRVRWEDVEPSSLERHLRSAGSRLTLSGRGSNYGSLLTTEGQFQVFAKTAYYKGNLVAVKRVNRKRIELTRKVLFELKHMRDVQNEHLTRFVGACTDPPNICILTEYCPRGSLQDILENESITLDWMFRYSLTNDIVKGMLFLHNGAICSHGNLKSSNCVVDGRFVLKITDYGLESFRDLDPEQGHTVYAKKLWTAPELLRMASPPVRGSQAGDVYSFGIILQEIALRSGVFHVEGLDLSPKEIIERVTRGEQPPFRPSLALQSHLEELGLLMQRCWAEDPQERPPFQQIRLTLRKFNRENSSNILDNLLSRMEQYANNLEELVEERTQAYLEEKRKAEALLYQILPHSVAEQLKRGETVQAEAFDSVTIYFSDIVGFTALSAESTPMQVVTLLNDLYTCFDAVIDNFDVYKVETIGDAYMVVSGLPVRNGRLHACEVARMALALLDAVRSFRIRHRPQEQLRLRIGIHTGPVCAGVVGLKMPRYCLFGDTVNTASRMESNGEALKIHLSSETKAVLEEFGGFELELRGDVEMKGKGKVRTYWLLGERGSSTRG
Procedure, shortened: (§1)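 cGMP measured by HTRF and scaled between buffer (minimum) and 100 nM amidated rat ANP (maximum). Polypeptides in 10-fold steps from 10 μM to 1 pM, 0.5% DMSO, 0.5 mM IBMX, 40 min at room temperature, on induced NPRA-overexpressing HEK293 cells.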

rat NPRA = target: T2, rat NPRA (Rattus norvegicus, UniProt P18910); experiment: Rat NPRA cGMP activity assay (HTRF) in HEK293 cells overexpressing NPRA; assay type: cell-based
T2 construct: Full-Length cDNA Cloning and Generation of Cell Lines Overexpressing Natriuretic Peptide Receptors (NPRs); expressed in transfected cells; host or cells: Jump-in T-Rex HEK293 cells, pJTI R4 CMV-TO MCS pA vector, tetracycline induction
T2 sequence (P18910 29-1057): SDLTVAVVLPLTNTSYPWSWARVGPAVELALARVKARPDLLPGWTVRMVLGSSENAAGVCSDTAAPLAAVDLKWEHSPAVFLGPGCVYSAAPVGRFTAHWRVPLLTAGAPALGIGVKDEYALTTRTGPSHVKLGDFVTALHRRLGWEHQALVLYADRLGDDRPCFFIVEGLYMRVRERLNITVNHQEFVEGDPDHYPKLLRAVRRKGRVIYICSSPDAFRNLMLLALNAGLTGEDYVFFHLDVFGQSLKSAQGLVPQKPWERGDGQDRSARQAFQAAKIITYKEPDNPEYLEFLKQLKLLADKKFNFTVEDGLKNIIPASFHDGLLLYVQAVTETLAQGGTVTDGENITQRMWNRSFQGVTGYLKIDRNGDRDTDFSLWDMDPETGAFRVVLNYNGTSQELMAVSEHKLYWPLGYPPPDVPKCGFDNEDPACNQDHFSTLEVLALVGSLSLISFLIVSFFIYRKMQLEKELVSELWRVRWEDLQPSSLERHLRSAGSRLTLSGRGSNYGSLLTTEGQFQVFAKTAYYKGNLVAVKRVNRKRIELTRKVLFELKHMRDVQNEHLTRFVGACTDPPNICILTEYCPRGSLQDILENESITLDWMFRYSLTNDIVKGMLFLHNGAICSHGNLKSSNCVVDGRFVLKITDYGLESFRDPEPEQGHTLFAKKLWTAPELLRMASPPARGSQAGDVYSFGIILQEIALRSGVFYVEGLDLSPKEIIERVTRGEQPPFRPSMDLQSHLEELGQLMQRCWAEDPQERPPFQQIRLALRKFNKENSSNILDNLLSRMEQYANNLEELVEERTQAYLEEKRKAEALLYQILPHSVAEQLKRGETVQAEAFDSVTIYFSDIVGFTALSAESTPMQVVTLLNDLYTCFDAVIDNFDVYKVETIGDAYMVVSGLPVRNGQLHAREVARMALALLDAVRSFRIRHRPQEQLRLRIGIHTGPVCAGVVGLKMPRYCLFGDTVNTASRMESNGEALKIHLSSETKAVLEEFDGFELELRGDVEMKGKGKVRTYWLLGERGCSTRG
Procedure, shortened: as §1

[1] = read-out: cGMP Assay (EC50, pM) w/Casein hNPRA
[2] = assay buffer with 0.1% BSA, read-out: cGMP Assay (EC50, pM) w/BSA rNPRA
[3] = cGMP Assay (EC50, pM) w/Casein hNPRA
[4] = assay buffer with 0.1% casein, read-out: cGMP Assay (EC50, pM) w/Casein rNPRA

Compound	EC50 (human NPRA; [1])	EC50 (rat NPRA; [4])	further results
CC[C@H](C)[C@@H]1NC(=O)[C@H](CCCNC(=N)N)NC(=O)[C@H](CC(=O)O)NC(=O)[C@H]([C@@H](C)CC)NC(=O)[C@H](CCCNC(=N)N)NC(=O)[C@H](CCCCN)NC(=O)CNC(=O)[C@H](Cc2ccccc2)NC(=O)[C@@H](NC(=O)[C@H](CO)NC(=O)[C@H](CO)NC(=O)[C@H](CCCNC(=N)N)NC(=O)[C@H](CCCNC(=N)N)NC(=O)[C@H](Cc2ccncc2)NC(=O)[C@H](CO)NC(=O)COCCOCCNC(=O)COCCOCCNC(=O)COCCOCCNC(=O)COCCOCCNC(=O)COCCOCCNC(=O)COCCOCCNC(=O)COCCOCCNC(=O)COCCOCCNC(=O)CNC(=O)[C@H](CCCCN)NC(=O)[C@H](CCC(=O)O)NC(=O)[C@H](CCCCN)NC(=O)[C@H](CCC(=O)O)NC(=O)[C@H](CCCCN)NC(=O)[C@H](CCC(=O)O)NC(=O)CC[C@H](NC(=O)CCCCCCCCCCCCCCCCCCC(=O)O)C(=O)O)CSCSC[C@@H](C(=O)N2CCC[C@H]2C(=O)N[C@@H](CO)C(=O)N[C@@H](Cc2ccccc2)C(=O)N[C@@H](CCCNC(=N)N)C(=O)N[C@@H](Cc2c[nH]cn2)C(=O)NCC(=O)NCC(=O)N[C@@H](CCCCN)C(=O)N[C@@H](CO)C(=O)N[C@@H](CO)C(=O)NCC(=O)N[C@@H](C)C(=O)N2CCC[C@H]2C(=O)N2CCC[C@H]2C(=O)N2CCC[C@H]2C(=O)N[C@@H](CO)C(N)=O)NC(=O)CNC(=O)[C@H](CC(C)C)NC(=O)CNC(=O)[C@H](CO)NC(=O)[C@H](CCC(N)=O)NC(=O)[C@H](Cc2c[nH]cn2)NC(=O)CNC1=O [Example 87]	621 pM		EC50 (rat NPRA; [2]): 463000 pM
CC[C@H](C)[C@@H]1NC(=O)[C@H](CCCNC(=N)N)NC(=O)[C@H](CC(=O)O)NC(=O)[C@H]([C@@H](C)CC)NC(=O)[C@H](CCCNC(=N)N)NC(=O)[C@H](CCCCN)NC(=O)CNC(=O)[C@H](Cc2ccccc2)NC(=O)[C@@H](NC(=O)[C@H](CO)NC(=O)[C@H](CO)NC(=O)[C@H](CCCNC(=N)N)NC(=O)[C@H](CCCNC(=N)N)NC(=O)[C@H](Cc2ccncc2)NC(=O)[C@H](CO)NC(=O)COCCOCCNC(=O)COCCOCCNC(=O)COCCOCCNC(=O)COCCOCCNC(=O)COCCOCCNC(=O)COCCOCCNC(=O)CNC(=O)[C@H](CCCCN)NC(=O)[C@H](CCC(=O)O)NC(=O)[C@H](CCCCN)NC(=O)[C@H](CCC(=O)O)NC(=O)[C@H](CCCCN)NC(=O)[C@H](CCC(=O)O)NC(=O)CC[C@H](NC(=O)CCCCCCCCCCCCCCCCCCC(=O)O)C(=O)O)CSCSC[C@@H](C(=O)N2CCC[C@H]2C(=O)N[C@@H](CO)C(=O)N[C@@H](Cc2ccccc2)C(=O)N[C@@H](CCCNC(=N)N)C(=O)N[C@@H](Cc2c[nH]cn2)C(=O)NCC(=O)N[C@@H](CO)C(=O)N2CCC[C@H]2C(=O)N[C@@H](CO)C(=O)N[C@@H](CO)C(=O)NCC(=O)N[C@@H](C)C(=O)N2CCC[C@H]2C(=O)N2CCC[C@H]2C(=O)N2CCC[C@H]2C(=O)N[C@@H](CO)C(N)=O)NC(=O)CNC(=O)[C@H](CC(C)C)NC(=O)CNC(=O)[C@H](CO)NC(=O)[C@H](Cc2ccc(O)cc2)NC(=O)[C@H](Cc2c[nH]cn2)NC(=O)CNC1=O [Example 113]			EC50 (human NPRA; [3]): 621 pM; EC50 (rat NPRA; cGMP Assay (EC50, pM) w/BSA rNPRA, assay buffer with 0.1% BSA): 149000 pM
{C20 diacid-γGlu}-EKEKEKGEKPRSSCFGG[Dap]IDRIGHQSGLGCPSFRHGSPSSGAPPPS-NH2 (linker 14-30 via CH2) [Example 139]	19700 pM	200000 pM	
{C20 diacid-γGlu}-EKEKEKG[AEEA][AEEA][AEEA][AEEA][AEEA][AEEA]EK[βAla]RSSCFGKRIDRIGHQSGLGCPSFRHGSPSSGAPPPS-NH2 (linker 20-36 via CH2) [Example 119]	493 pM	17900 pM	
CC[C@H](C)[C@@H]1NC(=O)[C@H](CCCNC(=N)N)NC(=O)[C@H](CC(=O)O)NC(=O)[C@H]([C@@H](C)CC)NC(=O)[C@H](CCCNC(=N)N)NC(=O)CNC(=O)CNC(=O)[C@H](Cc2ccccc2)NC(=O)[C@@H](NC(=O)[C@H](CO)NC(=O)[C@H](CO)NC(=O)[C@H](CCCNC(=N)N)NC(=O)[C@H](CCCNC(=N)N)NC(=O)[C@H](Cc2ccncc2)NC(=O)[C@H](CO)NC(=O)COCCOCCNC(=O)COCCOCCNC(=O)COCCOCCNC(=O)COCCOCCNC(=O)COCCOCCNC(=O)COCCOCCNC(=O)CNC(=O)[C@H](CCCCN)NC(=O)[C@H](CCC(=O)O)NC(=O)[C@H](CCCCN)NC(=O)[C@H](CCC(=O)O)NC(=O)[C@H](CCCCN)NC(=O)[C@H](CCC(=O)O)NC(=O)CC[C@H](NC(=O)CCCCCCCCCCCCCCCCCCC(=O)O)C(=O)O)CSCSC[C@@H](C(=O)N2CCC[C@H]2C(=O)N[C@@H](CO)C(=O)N[C@@H](Cc2ccccc2)C(=O)N[C@@H](CCCNC(=N)N)C(=O)N[C@@H](Cc2c[nH]cn2)C(=O)NCC(=O)N[C@@H](CO)C(=O)N2CCC[C@H]2C(=O)N[C@@H](CO)C(=O)N[C@@H](CO)C(=O)NCC(=O)N[C@@H](C)C(=O)N2CCC[C@H]2C(=O)N2CCC[C@H]2C(=O)N2CCC[C@H]2C(=O)N[C@@H](CO)C(N)=O)NC(=O)CNC(=O)[C@H](CC(C)C)NC(=O)CNC(=O)[C@H](CO)NC(=O)[C@H](Cc2ccc(O)cc2)NC(=O)[C@H](Cc2c[nH]cn2)NC(=O)CNC1=O [Example 96]			EC50 (human NPRA; [3]): 720 pM; EC50 (rat NPRA; cGMP Assay (EC50, pM) w/Casein rNPRA, assay buffer with 0.1% casein): 12200 pM
{C20 diacid-γGlu}-EKEKEKGS[4Pal]RRSSCFGGRIDRIGHQSGLGCPSFRHGGKSSGAPPPS-NH2 (linker 14-30 via CH2) [Example 67]	1220 pM	18800 pM	
CC[C@H](C)[C@@H]1NC(=O)[C@H](CCCNC(=N)N)NC(=O)[C@H](CC(=O)O)NC(=O)[C@H]([C@@H](C)CC)NC(=O)[C@H](CCCNC(=N)N)NC(=O)CNC(=O)CNC(=O)[C@H](Cc2ccccc2)NC(=O)[C@@H](NC(=O)[C@H](CO)NC(=O)[C@H](CO)NC(=O)[C@H](CCCNC(=N)N)NC(=O)[C@H](CCCNC(=N)N)NC(=O)[C@H](Cc2ccncc2)NC(=O)[C@H](CO)NC(=O)CNC(=O)[C@H](CCCCN)NC(=O)[C@H](CCC(=O)O)NC(=O)[C@H](CCCCN)NC(=O)[C@H](CCC(=O)O)NC(=O)[C@H](CCCCN)NC(=O)[C@H](CCC(=O)O)NC(=O)CC[C@H](NC(=O)CCCCCCCCCCCCCCCCCCC(=O)O)C(=O)O)CSSC[C@@H](C(=O)N[C@@H](CC(N)=O)C(=O)N[C@@H](CO)C(=O)N[C@@H](Cc2ccccc2)C(=O)N[C@@H](CCCNC(=N)N)C(=O)N[C@@H](Cc2ccc(O)cc2)C(N)=O)NC(=O)CNC(=O)[C@H](CC(C)C)NC(=O)CNC(=O)[C@H](CO)NC(=O)[C@H](CCC(N)=O)NC(=O)[C@H](C)NC(=O)CNC1=O [Example 11]	1020 pM		EC50 (rat NPRA; [2]): 24700 pM
